According to paper PMC3722118, “Hellebrin and its aglycone form hellebrigenin display similar in vitro growth inhibitory effects in cancer cells and binding profiles to the alpha subunits of the Na^+/K^+-ATPase” (Molecular Cancer, 2013):
Like-named read-outs stand apart in the source and are kept apart here.

Key:
[1] = test system: human cancer cells (A549, U373, Hs683, T98G, MCF-7, SKMEL-28, PC-3, HT-29); experiment: MTT growth inhibition, mean over the eight human cancer cell lines; type: cell-based; conditions: read-out: IC50 (nM) Mean ± SEM
Source text: (§1) The histological types and origins of the eight human cancer cell lines that were used for the MTT colorimetric assay are detailed in the legend of Table 1. Two mouse cancer cell lines were also used, the CT26.WT colon cancer cell line (ATCC code CRL-2638) and the B16F10 melanoma cell line (ATCC code CRL-6475). Both cell lines were obtained from the American Type Culture Collection (ATCC, Manassas, VA). A control cell line (human NHDF fibroblasts) was obtained from PromoCell (code c-12300; Heidelberg, Germany). The cell lines detailed in Figure 2A are a generous gift from the National Cancer Institute (NCI, Bethesda, USA) to Steven Karlish’s lab.
(§2) The cancer cells were cultured in RPMI (Lonza, Verviers, Belgium) medium supplemented with 10% heat-inactivated fetal calf serum (Lonza). All culture media were supplemented with 4 mM glutamine, 100 μg/mL gentamicin, 200 U/mL penicillin and 200 μg/mL streptomycin (Lonza). The NHDF fibroblasts were cultured in Lonza medium cc3132 KT FGM-2 BulletKit.
(§3) The overall growth level of the human cancer cell lines was determined using a colorimetric MTT (3-(4,5-dimethylthiazol-2yl)-2,5-diphenyltetrazolium bromide, Sigma, Belgium) assay as detailed previously. Briefly, this test measures the number of metabolically active (thus living) cells that are able to transform the yellow MTT into the blue formazan dye via a mitochondrial reduction involving succinate dehydrogenase. The amount of formazan obtained at the end of the experiment (measured by spectrophotometry) is directly proportional to the number of living cells. The determination of the optical density in the control compared to the treated cells therefore enables quantitative measurements of the effects of compounds on the growth of normal as well as cancer cells in vitro.
(§4) Each experimental condition was performed in six replicates.

[2] = test system: T98G glioma cells; experiment: MTT colorimetric in vitro growth inhibition assay; type: cell-based, human; conditions: read-out: IC50 (nM) T98G
Source text: as §1, §2, §3, §4

[3] = test system: MCF-7 breast cancer cells; experiment: MTT colorimetric in vitro growth inhibition assay; type: cell-based, human; conditions: read-out: IC50 (nM) MCF-7
Source text: as §1, §2, §3, §4

[4] = test system: HT-29 colon cancer cells; experiment: MTT colorimetric in vitro growth inhibition assay; type: cell-based, human; conditions: read-out: IC50 (nM) HT-29
Source text: as §1, §2, §3, §4

[5] = test system: PC-3 prostate cancer cells; experiment: MTT colorimetric in vitro growth inhibition assay; type: cell-based, human; conditions: read-out: IC50 (nM) PC-3
Source text: as §1, §2, §3, §4

[6] = test system: A549 NSCLC cells; experiment: MTT colorimetric in vitro growth inhibition assay; type: cell-based, human; conditions: read-out: IC50 (nM) A549
Source text: as §1, §2, §3, §4

[7] = test system: U373 glioma cells; experiment: MTT colorimetric in vitro growth inhibition assay; type: cell-based, human; conditions: read-out: IC50 (nM) U373
Source text: as §1, §2, §3, §4

[8] = test system: Hs683 glioma cells; experiment: MTT colorimetric in vitro growth inhibition assay; type: cell-based, human; conditions: read-out: IC50 (nM) Hs683
Source text: as §1, §2, §3, §4

[9] = test system: SKMEL-28 melanoma cells; experiment: MTT colorimetric in vitro growth inhibition assay; type: cell-based, human; conditions: read-out: IC50 (nM) SKMEL-28
Source text: as §1, §2, §3, §4

[10] = molecular target: T1, purified human α1β1 Na+/K+-ATPase (Homo sapiens, UniProt P05023); experiment: Inhibition of NaK activity of purified detergent-soluble complex (Pi release); type: biochemical; conditions: 37°C, 1 h, 1 mM ATP; read-out: Ki for inhibition of NaK activity of purified human α1β1
T1 construct: made in house; host or cells: Pichia pastoris strain SMD1165; detergent-soluble complex purified
Description: The inhibition of NaK activity of the purified detergent-soluble α1β1, α2β1, and α3β1 complexes by cardiotonic steroids and an analysis of the inhibition data (Ki values) were also performed as previously described. The inhibitors were added to the recombinant enzyme (0.08–0.2 μg of protein) in 400 μl of reaction medium containing 130 mM NaCl, 5 mM KCl, 3 mM MgCl2, 25 mM histidine, pH 7.4, 1 mM EGTA, 0.01 mg/ml SOPS, 0.001 mg/ml cholesterol, and 0.005 mg/ml C12 E8 in 48-well plates. The reaction (37°C for 1 h) was started by the addition of 1mM ATP. Pi release was measured with a malachite green dye to detect the phosphor-molybdate (Pi Color Lock, Innova Biosciences). The percent inhibition V /V0 was calculated for each cardiac glycoside concentration, and Ki values were obtained by fitting the data to the function V /V0 = Ki /([CG] + Ki ) (using Kaleidagraph). V0 and V represent the control rate and rate of NaK-ATPase activity at particular concentrations of cardiac glycosides, [CG], respectively.
(§5) Average KD or Ki values ± SEM for each isoform were calculated. Statistical significance was calculated by the unpaired Students t-test. P values <0.05 were considered significant.

[11] = test system: HT-29 colon cancer cells; experiment: O2 consumption rate (MitoXpress assay); type: cell-based, human; conditions: compounds at their IC50 (MTT), 24 h
Description: For enzymatic determination of lactate production, confluent tumor cells were incubated with 10 mM glucose for 24 hours. Culture medium was then filtered through centrifugation columns with a 10 KDa cutoff, and L-lactate concentrations were determined on an ISCUSflex analyzer (CMA Microdialysis AB, Solna, Sweden). O2 consumption was determined using the MitoXpress assay according to the manufacturer’s instructions (LuxCell Biosciences, Cork, Ireland). Briefly, after adding the oxygen probe to tumor cells cultured for 24 hours in 96-well microplates with or without the tested compounds, the wells were sealed with mineral oil, and respiration was evaluated using time-resolved fluorescent plate readers. Under these conditions, O2 depletion was translated into an increase in probe phosphorescence signal, and the slope of this signal was used to derive the O2 consumption rate.
Figure 6 Metabolic profiling of human HT29 colon cancer cells treated with cardiotonic steroids. A: Extracellular lactate concentrations and B: O2 consumption rates in HT29 cancer cells treated with the indicated compounds at their IC50in vitro growth inhibitory concentrations (see Table 1). The data (mean ± SEM from triplicates) are expressed in mM lactate accumulated in the extracellular medium after 24 hours and arbitrary units derived from time-resolved fluorescent signal.min^-1.

[12] = molecular target: T2, human α1β1 NaK complex (Homo sapiens, UniProt P05023); experiment: 3H-ouabain competitive displacement on P. pastoris membranes; type: binding; conditions: 3H-ouabain displacement, three independent experiments; read-out: Affinity (nM) α-1 (KD ± SEM)
T2 construct: made in house; host or cells: Pichia pastoris strain SMD1165 (membranes)
Description: (§6) K0.5 was calculated using a one site inhibition model: B/BCG=0 = K0.5/([CG] + K0.5). […] Binding of each cardiac glycoside was estimated in 3 separate experiments.
as §5

[13] = molecular target: T3, human α2β1 NaK complex (Homo sapiens, UniProt P50993); experiment: as above; type: binding
T3 construct: made in house; host or cells: Pichia pastoris strain SMD1165 (membranes)
Description: as §6, §5

[14] = molecular target: T4, human α3β1 NaK complex (Homo sapiens, UniProt P13637); experiment: as above; type: binding
T4 construct: made in house; host or cells: Pichia pastoris strain SMD1165 (membranes)
Description: as §6, §5

[15] = test system: NHDF fibroblasts; experiment: MTT growth inhibition in non-cancerous control cell line; type: cell-based; conditions: NHDF, normal human fibroblasts, read-out: in vitro growth inhibitory effects (IC50) in NHDF fibroblasts
Source text: as §1, §2, §3, §4

[16] = 72 h, mean over eight human cancer cell lines, three days of culture
[17] = Homo sapiens, T98G, 72 h, three days of culture, * three independent experiments, ** one experiment, six replicates
[18] = Homo sapiens, MCF7, 72 h, three days of culture, * three independent experiments, ** one experiment, six replicates
[19] = Homo sapiens, HT-29, 72 h, three days of culture, * three independent experiments, ** one experiment, six replicates
[20] = Homo sapiens, 72 h, three days of culture, * three independent experiments, ** one experiment, six replicates
[21] = Homo sapiens, A549, 72 h, three days of culture, * three independent experiments, ** one experiment, six replicates
[22] = Homo sapiens, U373 MG, 72 h, three days of culture, * three independent experiments, ** one experiment, six replicates
[23] = Homo sapiens, Hs 683, 72 h, three days of culture, * three independent experiments, ** one experiment, six replicates
[24] = Homo sapiens, SK-MEL-28, 72 h, three days of culture, * three independent experiments, ** one experiment, six replicates
[25] = three days of culture, * three independent experiments, ** one experiment, six replicates

SMILES	IC50 [1, 16] [nM]	IC50 [2, 17] [nM]	IC50 [3, 18] [nM]	IC50 [4, 19] [nM]	IC50 [5, 20] [nM]	IC50 [6, 21] [nM]	IC50 [7, 22] [nM]	IC50 [8, 23] [nM]	IC50 [9, 24] [nM]	IC50 ([1]; Homo sapiens, 72 h) [nM]	IC50 ([2]; Homo sapiens, T98G, 72 h) [nM]	IC50 ([3]; Homo sapiens, MCF7, 72 h) [nM]	IC50 ([4]; Homo sapiens, HT-29, 72 h) [nM]	IC50 ([5]; Homo sapiens, 72 h) [nM]	IC50 ([6]; Homo sapiens, A549, 72 h) [nM]	IC50 ([7]; Homo sapiens, U373 MG, 72 h) [nM]	IC50 ([8]; Homo sapiens, Hs 683, 72 h) [nM]	IC50 ([9]; Homo sapiens, SK-MEL-28, 72 h) [nM]	further results
C[C@H]1O[C@@H](O[C@H]2[C@@H](O)C[C@H](O[C@H]3[C@@H](O)C[C@H](O[C@H]4CC[C@@]5(C)[C@H](CC[C@@H]6[C@@H]5CC[C@]5(C)[C@@H](C7=CC(=O)OC7)CC[C@]65O)C4)O[C@@H]3C)O[C@@H]2C)C[C@H](O)[C@@H]1O [Digitoxin, digitoxin]	75 ± 26	32	187	198	37	11	61	15	59										
C[C@]12CC[C@H](O)C[C@H]1CC[C@@H]1[C@@H]2C[C@@H](O)[C@]2(C)[C@@H](C3=CC(=O)OC3)CC[C@]12O [Digoxigenin, digoxigenin]	2900	1170	5320	4460	3880	395 ± 34	3190	794 ± 22	4000										
C[C@]12CC[C@H](O)C[C@H]1CC[C@@H]1[C@@H]2CC[C@]2(C)[C@@H](C3=CC(=O)OC3)CC[C@]12O [Digitoxigenin]										733 ± 349	166	2130	230	298	92	369	79	2500	
C[C@]12C[C@@H](O)[C@H]3[C@@H](CC[C@]4(O)C[C@@H](O)C[C@@H](O)[C@]34CO)[C@@]1(O)CC[C@@H]2C1=CC(=O)OC1 [Ouabagenin, ouabagenin]																			Ki [10]: 721 ± 70 nM; IC50 ([1]; mean over eight human cancer cell lines, three days of culture): 3050 nM; IC50 [2, 25]: 3600 nM; IC50 [3, 25]: 4010 nM; IC50 [4, 25]: 3480 nM; IC50 [5, 25]: 2710 nM; IC50 [6, 25]: 866 ± 25 nM; IC50 [7, 25]: 5280 nM; IC50 [8, 25]: 1900 nM; IC50 [9, 25]: 2560 nM
C[C@H]1O[C@@H](O[C@H]2[C@@H](O)C[C@H](O[C@H]3[C@@H](O)C[C@H](O[C@H]4CC[C@@]5(C)[C@H](CC[C@@H]6[C@@H]5C[C@@H](O)[C@]5(C)[C@@H](C7=CC(=O)OC7)CC[C@]65O)C4)O[C@@H]3C)O[C@@H]2C)C[C@H](O)[C@@H]1O [Digoxin, digoxin]	202 ± 37	274 ± 17	363 ± 35	208 ± 20	215 ± 71	60 ± 7	227 ± 42	51 ± 6	220 ± 26										O2 consumption rate (cell respiration) [11]: significantly reduced
C[C@]12CC[C@H](O)C[C@H]1CC[C@@H]1[C@@H]2[C@H](O)C[C@]2(C)[C@@H](c3ccc(=O)oc3)CC[C@]12O [Gamabufotalin, gamabufotalin]										26 ± 4	31 ± 8	40 ± 7	37 ± 3	22 ± 4	7 ± 1	34 ± 1	14 ± 3	22 ± 1	Kd [12]: 243 ± 48 nM; Kd ([13]; 3H-ouabain displacement, three independent experiments, read-out: Affinity (nM) α-2 (KD ± SEM)): 247 ± 30 nM; Selectivity α-1 / α-2 ([13]; ratio of KD α-1 to KD α-2): 1.0; Kd ([14]; 3H-ouabain displacement, three independent experiments, read-out: Affinity (nM) α-3 (KD ± SEM)): 236 ± 14 nM; Selectivity α-1 / α-3 ([14]; ratio of KD α-1 to KD α-3): 1.0; IC50 [15]: > 10000 nM
